Laboratory results published in patent US20260297060A1, “COMPOUNDS FOR THE DEGRADATION OF MUTANT BRAF” (C4 THERAPEUTICS, INC., priority 2023, published 2026).
Where two headings read alike, the source gives them in different places.

Key:
BRAF V600E = molecular target: T1, BRAF V600E (Homo sapiens, UniProt P15056+Q96SW2, V600E); experiment: BRAF V600E HiBiT Degradation Assay; assay type: cell-based
T1 construct: knock-in of the HiBiT tag to the endogenous BRAF V600E locus; host or cells: A375.10 (A375 clonal line, CRISPR HiBiT knock-in at the endogenous BRAF V600E locus)
T1 sequence (P15056 whole entry V600E): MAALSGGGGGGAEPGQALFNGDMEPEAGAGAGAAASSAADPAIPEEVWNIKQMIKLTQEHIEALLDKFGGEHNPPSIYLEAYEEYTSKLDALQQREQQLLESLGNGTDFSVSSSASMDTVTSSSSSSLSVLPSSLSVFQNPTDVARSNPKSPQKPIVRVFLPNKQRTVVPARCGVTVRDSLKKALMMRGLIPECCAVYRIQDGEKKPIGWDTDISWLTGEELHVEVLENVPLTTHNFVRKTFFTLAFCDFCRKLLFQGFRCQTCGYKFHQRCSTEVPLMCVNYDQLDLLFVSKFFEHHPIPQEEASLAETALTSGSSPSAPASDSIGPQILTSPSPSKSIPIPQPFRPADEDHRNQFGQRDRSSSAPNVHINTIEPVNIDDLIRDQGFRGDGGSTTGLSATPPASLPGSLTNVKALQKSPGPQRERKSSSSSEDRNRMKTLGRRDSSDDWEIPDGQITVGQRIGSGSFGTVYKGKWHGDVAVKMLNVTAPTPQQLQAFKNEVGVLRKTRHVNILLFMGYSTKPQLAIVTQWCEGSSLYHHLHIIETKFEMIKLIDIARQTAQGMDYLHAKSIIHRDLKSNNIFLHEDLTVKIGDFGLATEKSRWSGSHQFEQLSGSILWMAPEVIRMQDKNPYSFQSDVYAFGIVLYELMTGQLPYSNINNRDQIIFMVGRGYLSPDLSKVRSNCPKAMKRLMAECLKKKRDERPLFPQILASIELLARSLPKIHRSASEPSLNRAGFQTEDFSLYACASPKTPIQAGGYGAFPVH
T1 sequence (Q96SW2 whole entry): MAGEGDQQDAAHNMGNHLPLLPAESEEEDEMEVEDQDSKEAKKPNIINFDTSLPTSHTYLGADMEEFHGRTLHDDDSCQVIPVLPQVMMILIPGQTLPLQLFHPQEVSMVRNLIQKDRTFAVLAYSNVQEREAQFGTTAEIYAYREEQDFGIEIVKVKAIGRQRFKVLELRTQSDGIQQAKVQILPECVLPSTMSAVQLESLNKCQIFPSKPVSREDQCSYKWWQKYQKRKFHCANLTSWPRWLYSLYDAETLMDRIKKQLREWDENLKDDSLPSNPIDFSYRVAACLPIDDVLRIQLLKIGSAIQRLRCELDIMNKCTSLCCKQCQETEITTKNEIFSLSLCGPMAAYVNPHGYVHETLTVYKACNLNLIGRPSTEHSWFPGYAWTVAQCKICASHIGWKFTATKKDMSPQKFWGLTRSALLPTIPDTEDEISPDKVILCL
T1 sequence (Q16531 whole entry partner): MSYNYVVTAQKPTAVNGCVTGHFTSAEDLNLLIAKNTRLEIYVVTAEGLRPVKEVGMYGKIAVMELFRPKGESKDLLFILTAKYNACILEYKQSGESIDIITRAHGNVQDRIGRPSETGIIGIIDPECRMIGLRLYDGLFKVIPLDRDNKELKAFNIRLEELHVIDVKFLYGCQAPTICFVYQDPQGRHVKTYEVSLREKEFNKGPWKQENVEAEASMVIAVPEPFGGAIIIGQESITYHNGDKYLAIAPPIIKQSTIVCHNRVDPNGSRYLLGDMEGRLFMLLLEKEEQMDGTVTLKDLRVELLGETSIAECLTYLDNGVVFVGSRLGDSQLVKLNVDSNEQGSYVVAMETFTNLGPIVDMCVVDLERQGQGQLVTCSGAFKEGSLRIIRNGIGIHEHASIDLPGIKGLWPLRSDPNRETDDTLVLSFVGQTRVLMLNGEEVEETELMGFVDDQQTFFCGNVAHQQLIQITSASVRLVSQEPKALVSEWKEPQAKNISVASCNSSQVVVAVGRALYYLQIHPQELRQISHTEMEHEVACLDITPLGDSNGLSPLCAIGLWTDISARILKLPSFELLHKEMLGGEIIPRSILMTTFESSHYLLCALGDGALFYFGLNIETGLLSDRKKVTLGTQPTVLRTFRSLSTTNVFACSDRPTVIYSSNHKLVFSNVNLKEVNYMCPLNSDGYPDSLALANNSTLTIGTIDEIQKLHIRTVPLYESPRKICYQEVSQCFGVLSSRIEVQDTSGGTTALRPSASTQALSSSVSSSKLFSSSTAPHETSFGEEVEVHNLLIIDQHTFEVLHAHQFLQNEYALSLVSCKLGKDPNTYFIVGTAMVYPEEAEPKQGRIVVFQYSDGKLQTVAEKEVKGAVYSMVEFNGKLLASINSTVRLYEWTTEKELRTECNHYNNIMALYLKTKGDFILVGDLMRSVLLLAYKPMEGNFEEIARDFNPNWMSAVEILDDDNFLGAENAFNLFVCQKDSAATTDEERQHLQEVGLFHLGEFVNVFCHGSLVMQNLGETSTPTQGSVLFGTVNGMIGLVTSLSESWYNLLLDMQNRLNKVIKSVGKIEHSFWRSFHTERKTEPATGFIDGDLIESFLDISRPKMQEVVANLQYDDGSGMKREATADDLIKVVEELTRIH
Procedure: Compounds of this invention were tested for degradation of mutant BRAF V600E using the HiBiT assay, a luminescence-based assay for quantification of cellular protein levels using the Nano-Glo® HiBiT Lytic Detection System (Catalog No. N3050, Promega, Madison, WI USA). This assay utilizes the HiBiT tag on a protein of interest, which creates a luminescent signal in the presence of a complementing peptide and its substrate, the quantification of which is proportional to the amount of HiBiT-tagged protein in the cell.
The cell line A375, which is homozygous for the BRAF V600E mutation, was purchased from ATCC (Catalog No. CRL-1619, Manassas, VA, USA). A375 cells were engineered to express HiBiT tagged BRAF V600E by CRISPR knock-in of the HiBiT tag to the endogenous BRAF V600E locus, followed by selection of a clonal population containing the appropriate knock-in (referred to here as cell line A375.10). A375.10 cells were maintained at 37° C. in an atmosphere of 5% CO2 in Dulbecco's modified Eagle Medium (DMEM) with high glucose (Catalog No. 11965092), supplemented with 10% fetal bovine serum (FBS; Catalog No. 10437036), and 10 mM HEPES (Catalog No. 15630130), all obtained from Thermofisher Scientific (Waltham, MA, USA). Cell culture flasks and 384-well microplates were acquired from VWR (Radnor, PA, USA).
Test compounds were prepared by dissolving neat compounds in DMSO (Catalog No. D8418, Sigma-Aldrich, Inc., St. Louis, MO, USA) to generate 10 mM stock solutions, which were serially diluted (half log) in DMSO to generate an 11-point dose series (1000× final treatment concentration) in a 384-Well Low Dead Volume Microplate (Catalog No. LP-0200, Labcyte, San Jose, CA, USA). Using the Echo 550 Acoustic Liquid Handler (Labcyte), 30 nL of serially diluted compound solutions were dispensed in duplicate to 384-well TC-treated microplates (Catalog No. 3571, Corning, Glendale, CA, USA) and 30 nL of DMSO was dispensed to control wells. A375.10 cells resuspended in growth media without phenol red (Catalog No. 21063-029, Thermofisher Scientific) were then added to 384-well plates containing the 11-point dose series of compounds in duplicate (maximum 10 μM concentration for final treatment) at a density of 12,000 cells/well in 30 μl. Plates were then spun briefly, and cells were incubated with compound at 37° C. for 2 hours, 6 hours, or 24 hours.
Following the appropriate treatment time, Nano-Glo® HiBiT Lytic Assay reagents were added to the cells per the manufacturer's instructions by adding 30 μl of reagent per well, and the luminescence signal was acquired by plate reader. Cells treated with DMSO only (no test compound treatment) were used as the negative control (N). Media only (no cells added) with Nano-Glo reagent addition was used as the background or positive control (P). The percent response of compound treated samples were calculated by subtracting out the background signal (P) and normalizing to the DMSO control (N) as follows.
% Response=100×(Treated Signal−Average (P))/(Average (N)−Average (P)).
Data were analyzed with a 4-parameter logistic fit to generate sigmoidal dose-response curves. The DC50 is the concentration of compound at which 50% of the cellular BRAF V600E has been degraded. The Emax, or maximum effect of each compound, represents the amount of residual protein remaining in the cell following compound treatment. The IP, or inflection point of the dose-response curve, is the concentration of compound at which 50% of the observed degradation response is achieved.
The experiment was conducted at least once for each compound. If the experiment was conducted multiple times, the data shown in the table is the average of the two or more experiments.

A375-NRAS^Q61K cells = experiment: CTGlo Cell Viability Assay, A375-NRAS^Q61K (A375.11) cells, 96 hours; assay type: cell-based, human; conditions: A375.11 (A375-NRAS^Q61K) cells
Procedure: Compounds of this invention were tested for their effect on the viability of A375-NRAS^Q61K cells by quantification of ATP using the CellTiter-Glo® 2.0 Cell Viability Assay (Catalog No. G9243, Promega, Madison, WI, USA). This assay produces a luminescent signal in the presence of ATP, which is indicative of metabolically active cells, making the luminescence readout proportional to the number of viable cells.
A375-NRAS^Q61K cells (harboring BRAF homozygous V600E mutation and NRAS homozygous Q61K mutation) were purchased from ATCC (Catalog No. CRL-1619IG-2, Manassas, VA, USA). A375-NRAS^Q61K cells (also referred to here as A375.11) were maintained at 37° C. in an atmosphere of 5% CO2 in Dulbecco's modified Eagle Medium (DMEM) with high glucose (Catalog No. 11965092), supplemented with 10% fetal bovine serum (FBS; Catalog No. 10437036), and 10 mM HEPES (Catalog No. 15630130), all obtained from Thermofisher Scientific (Waltham, MA, USA). Cell culture flasks and 384-well microplates were acquired from VWR (Radnor, PA, USA).
Test compounds were prepared by dissolving neat compounds in DMSO (Catalog No. D8418, Sigma-Aldrich, Inc., St. Louis, MO, USA) to generate 10 mM stock solutions, which were serially diluted (half log) in DMSO to generate an 11-point dose series (1000× final treatment concentration) in a 384-Well Low Dead Volume Microplate (Catalog No. LP-0200, Labcyte, San Jose, CA, USA). Using the Echo 550 Acoustic Liquid Handler (Labcyte), 50 nL of serially diluted compound solutions were dispensed in duplicate to 384-well TC-treated microplates (Catalog No. 3571, Corning, Glendale, CA, USA) and 50 nL of DMSO was dispensed to control wells. A375-NRAS^Q61K cells were resuspended in growth media and added to 384-well plates containing a […] of compounds in duplicate (maximum 10 μM concentration for final treatment) at a density of 250 cells/well in 50 μl. Cells were also plated to a 384-well plate with no compound treatment, to which CellTiter-Glo® reagent was added and luminescence was read right after plating to act as a baseline signal at time of plating (To). Plates treated with compound were then spun briefly, and cells were incubated with compound at 37° C. for 96 hours.
After 96 hours compound treatment, CellTiter-Glo® reagent was added to the cells at 25 μl per well and luminescence was read out on the PHERAstar plate reader (BMG Labtech, Ortenberg, Germany). Cells treated with DMSO only (no test compound treatment) were used as the negative control (N). DMSO treated cells with no CellTiter-Glo® reagent added were used as the background or positive control (P). Viability was determined by subtracting out the average background signal (P) and normalized to the average untreated signal (N) set at 100%.
Data were analyzed with a 4-parameter logistic fit to generate sigmoidal dose-response curves. The half-maximal inhibition of cell growth (GI50) is the concentration at which the fitted curve crosses 50%. The Emax, or maximum effect of each compound, represents the lowest % viability achieved following compound treatment.

[1] = A375.10 cells, BRAF V600E, 2 hours, inflection point, read-out: HiBiT-Degradation A375.10 BRAF 2 hours IP
[2] = A375.10 cells, BRAF V600E, 2 hours, read-out: HiBiT-Degradation A375.10 BRAF 2 hours DC50
[3] = Homo sapiens, 96 h, lowest % viability achieved
[4] = A375.10 cells, BRAF V600E, 2 hours, residual protein remaining, read-out: HiBiT-Degradation A375.10 BRAF 2 hours Emax

SMILES	DC50 (BRAF V600E; [1]) [µM]	DC50 (BRAF V600E; [2]) [µM]	Emax (BRAF V600E; read-out: HiBiT-Degradation A375.10 BRAF 2 hours Emax, A375.10 cells, BRAF V600E, 2 hours, residual protein remaining) [%]	GI50 (A375-NRAS^Q61K cells; Homo sapiens, 96 h) [µM]	Emax (A375-NRAS^Q61K cells; [3]) [%]	HiBiT-Degradation A375.10 BRAF 2 hours Emax (BRAF V600E)	GI50 (A375-NRAS^Q61K cells) [µM]	CTGlo A375.11 96 hours Emax (A375-NRAS^Q61K cells; lowest % viability achieved)	Emax (BRAF V600E; [4]) [%]	DC50 (BRAF V600E; A375.10 cells, HiBiT, BRAF V600E, 24 hours, read-out: HiBiT-Degradation A375.10 BRAF 24 hours DC50) [µM]	Emax (BRAF V600E; A375.10 cells, HiBiT, BRAF V600E, 24 hours, read-out: HiBiT-Degradation A375.10 BRAF 24 hours Emax) [%]	DC50 (BRAF V600E; A375.10 cells, HiBiT, BRAF V600E, 24 hours, read-out: HiBiT-Degradation A375.10 BRAF 24 hours IP) [µM]	HiBiT-Degradation A375.10 BRAF 2 hours IP (BRAF V600E; A375.10 cells, BRAF V600E, 2 hours, inflection point)	DC50 (BRAF V600E; read-out: HiBiT-Degradation A375.10 BRAF 2 hours DC50, A375.10 cells, BRAF V600E, 2 hours) [µM]
CCN(C)S(=O)(=O)Nc1ccc(F)c(Oc2ccc3ncn([C@H]4COC5(CCC(N6CC[C@@H](c7ccc(NC8CCC(=O)NC8=O)cc7F)C(F)(F)C6)CC5)C4)c(=O)c3c2)c1C#N (stereo partly drawn) [Compound 189, 6-[2-cyano-3-[[ethyl(methyl)sulfamoyl]amino]-6-fluoro-phenoxy]-3-[(3R)-8-[(4S)-4-[4-[(2,6-dioxo-3-piperidyl)amino]-2-fluoro-phenyl]-3,3-difluoro-1-piperidyl]-1-oxaspiro[4.5]decan-3-yl]-4-oxo-quinazoline]	< 1	< 1	50 to 90	> 10	< 50									
CCN(C)S(=O)(=O)Nc1ccc(F)c(Oc2ccc3ncn([C@@H]4CCC5(CCN(C6CCC(c7cc8c(cc7F)c(N7CCC(=O)NC7=O)nn8C)CC6)CC5)C4)c(=O)c3c2)c1C#N (single isomer, unassigned) [Compound 32]	< 1	< 1				** (<90% and >50%)	1 to 10	*** (<=50%)						
CCN(C)S(=O)(=O)Nc1ccc(F)c(Oc2ccc3ncn(C4CC5(C4)CN(C4CC6(CCN(c7cc8c(cc7F)c(N7CCC(=O)NC7=O)nn8C)CC6)C4)C5)c(=O)c3c2)c1C#N (centres unmarked) [Compound 314, 6-[2-cyano-3-[[ethyl(methyl)sulfamoyl]amino]-6-fluoro-phenoxy]-3-[2-[7-[3-(2,4-dioxohexahydropyrimidin-1-yl)-5-fluoro-1-methyl-indazol-6-yl]-7-azaspiro[3.5]nonan-2-yl]-2-azaspiro[3.3]heptan-6-yl]-4-oxo-quinazoline]	< 1	< 1		< 1	50 to 90				< 50	< 1	< 50	< 1		
CO[C@H]1CCN(S(=O)(=O)Nc2ccc(F)c(Oc3ccc4ncc(C5CC6(CCN(C7CCC(c8cc9c(cc8F)c(N8CCC(=O)NC8=O)nn9C)CC7)CC6)C5)nc4c3)c2C#N)C1 (single isomer, unassigned) [Compound 275]					50 to 90		> 10		50 to 90				*** (<=1 μM)	< 1
CCN(C)S(=O)(=O)Nc1ccc(F)c(Oc2ccc3ncc(CCC4CCN(C5CCC(c6ccc(NC7CCC(=O)NC7=O)cc6F)CC5)CC4)nc3c2)c1C#N (single isomer, unassigned) [Compound 131, 7-[2-cyano-3-[[ethyl(methyl)sulfamoyl]amino]-6-fluoro-phenoxy]-2-[2-[1-[4-[4-[(2,6-dioxo-3-piperidyl)amino]-2-fluoro-phenyl]cyclohexyl]-4-piperidyl]ethyl]quinoxaline]	< 1	> 10			50 to 90		> 10		50 to 90					
CCN(C)S(=O)(=O)Nc1ccc(F)c(Oc2ccc3ncn([C@H]4C[C@@H]5CN(C6CCC(c7cc8c(cc7F)c(N7CCC(=O)NC7=O)nn8C)CC6)C[C@@H]5C4)c(=O)c3c2)c1C#N (single isomer, unassigned) [Compound 15]	< 1	< 1		> 10	50 to 90				50 to 90					
CCN(C)S(=O)(=O)Nc1ccc(F)c(Oc2ccc3ncn(C4CC5(CC(N6CC[C@H](c7cc8c(cc7F)c(N7CCC(=O)NC7=O)nn8C)C(F)(F)C6)C5)C4)c(=O)c3c2)c1C#N (stereo partly drawn) [Compound 217, 6-[2-cyano-3-[[ethyl(methyl)sulfamoyl]amino]-6-fluoro-phenoxy]-3-[2-[(4R)-4-[3-(2,4-dioxohexahydropyrimidin-1-yl)-5-fluoro-1-methyl-indazol-6-yl]-3,3-difluoro-1-piperidyl]spiro[3.3]heptan-6-yl]-4-oxo-quinazoline]	< 1	< 1		1 to 10	50 to 90				< 50					
